These results are taken from patent US4983740A, “Process for 1,4-dihydropyridine compounds” (Adir et Compagnie, priority 1986, dated 1991).

Structures can show the parent of a compound that is named as a salt.

In one test the test system is rat aorta. The experiment in a line: In vitro activity in rat aorta stimulated by potassium ions. In kind it is cell-based, rat (male Wistar). To be noted: 1 h; rat aorta rings, KCl 80 mM stimulation, cumulative doses at 60 minutes intervals. The procedure:
Determination of the Vitro Activity in Rat Aorta Stimulated by Potassium Ions
This trial was carried out using isolated organs removed from male Wistar rats weighing 300 to 400 g, kept under a water diet 18 hours before sacrificing.
After quickly sacrificing the animal, the aorta (at the level of the arch of the aorta) is removed and dissected into 2 mm-long rings; the endothelium is removed mechanically. After an equilibration period of 1 hour in a physiological solution consisting of (mM): NaCl 112, KCl 5, KH2 PO4 1, MgSO4 1.2, CaCl2 2.5, NaHCO3 25 and glucose 11.5, the preparations are stimulated with a potassium-rich solution. The latter consists of (mM):NaCl 37, KCl 80, KH2 PO4 1, MgSO4 1.2, CaCl2 2.5, NaHCO3 25 and glucose 11.5. This solution has a pH of 7.4 at 37° C.
After 15 minutes of stabilization, the compounds to be tested are then added (sample volume 0.2 ml) at cumulative doses at 60 minutes intervals. From the relaxation values obtained, it is possible to construct a doseresponse curve, leading to the calculation of an IC50 value (expressed in M).

Test [1] concerns conscious spontaneous hypertensive rats (SHR). The experiment in a line: Short-term studies in conscious spontaneous hypertensive rats (oral, systolic arterial pressure). It counts as in vivo, rat (SHR). To be noted: 3 mg/kg. How it is done: Short-term Studies in Conscious Spontaneous Hypertensive Rats (SHR)
Male spontaneous hypertensive rats weighing 270 to 320 g, aged 16 to 24 weeks, are anesthetized with ether. A polyethylene catheter is introduced into the femoral artery and moved forward to the level of the tail. The pressure in the femoral artery is recorded with a Statham® P23 sensor, on a Gould® 2400 recorder. The animals are treated at least one hour after the operation. The compounds are administered orally, in the dissolved form. The doses administered are expressed in mg/kg of base. The compounds of the invention were compared with amlodipine and with another 1,4-dihydropyridine derivative reference compound, nifedipine.

The subject of test [2] is conscious dogs with renal hypertension. Nature of the test: Study in conscious dogs with renal hypertension (oral, mean arterial pressure). It counts as in vivo, dog (Mongol). To be noted: digestive route. An excerpt: Study in Conscious Dogs with Renal Hypertension
Mongol dogs weighing 20 to 25 kg are used. A Silastic® catheter, inserted under anesthesia at the level of the abdominal aorta, left in position permanently, enables the arterial pressure to be determined subsequently in the conscious animal.
Arterial hypertension is induced by a second operation, under anesthesia, consisting in constricting the left renal artery with a clip, decreasing the flow rate therein by approximately 70%, the left kidney is also covered with a latex capsule in order to restrict circulatory compensations; the contralateral kidney is left in position.
The systolic, diastolic and mean arterial pressures are determined with a Statham® P23 pressure sensor attached to the Silastic® catheter and connected to a Gould® "pressure-processor". The compounds are tested in animals which became hypertensive in the conscious state at least one week after the second operation. The arterial pressure is continuously recorded up to 7 hours after the treatment and then at 24 hours.
The compounds to be tested are administered by the digestive route through gastric tubing, in the form of a solution which may be aqueous, aqueous/alcoholic and the like, depending on the solubility of the products.
The doses administered are expressed in mg base per body weight kg.

Usually IC50 stands for the concentration at which inhibition is half-maximal. As for `CCOC(=O)C1=C(COCCOCCN)NC(C)=C(C(=O)OC)C1c1cccc2c1OCO2` (racemic) [EXAMPLE 2, (4R,S)-2-{[2-(2-Aminoethoxy)ethoxy]methyl}-3-ethoxycarbonyl-5-methoxycarbonyl-6-methyl-4-(2,3-methylenedioxyphenyl)-1,4-dihydropyridine], in the test with rat aorta, the half-maximal inhibitory concentration (IC50) was 30 nM. Also, in test [1], the “Systolic arterial pressure after treatment, Δ mm Hg, 4 h” value was -13 mm Hg and the “Systolic arterial pressure after treatment, Δ mm Hg, 6 h” value is on record as -16 mm Hg.
On the same counts, the results for `C=CCN(CC=C)CCOCCOCC1=C(C(=O)OCC)C(c2ccccc2Cl)C(C(=O)OC)=C(C)N1` (racemic) [EXAMPLE 8, (4R,S)-4-(2-Chlorophenyl)-2-[{2-[2-(N,N-diallylamino)ethoxy]ethoxy}methyl]-3-ethoxycarbonyl-5-methoxycarbonyl-6-methyl-1,4-dihydropyridine hemifumarate] are 6.5 nM, -21 mm Hg and -19 mm Hg.
On to `CCOC(=O)C1=C(COCCOCCN(C)Cc2ccccc2)NC(C)=C(C(=O)OC)C1c1ccccc1Cl` (racemic) [EXAMPLE 7, (4R,S)-2-[{2-[2-(N-Methyl-N-benzylamino)ethoxy]ethoxy}-methyl]-4-(2-chlorophenyl)-3-ethoxycarbonyl-5-methoxycarbonyl-6-methyl-1,4-dihydropyridine tartrate], for which, in the test with rat aorta, the midpoint of inhibition, the IC50, lay at 4 nM. Moreover, in test [2] (0.5 mg/kg), the “Mean arterial pressure after treatment, Δ mm Hg, 4 h” value is -7 mm Hg; the “Mean arterial pressure after treatment, Δ mm Hg, 7 h” value is on record as -3 mm Hg; the “Mean arterial pressure after treatment, Δ mm Hg, 24 h” value was 0 mm Hg. In addition, in test [1], the “Systolic arterial pressure after treatment, Δ mm Hg, 4 h” value is -22 mm Hg; the “Systolic arterial pressure after treatment, Δ mm Hg, 6 h” value was -16 mm Hg; the “Systolic arterial pressure after treatment, Δ mm Hg, 24 h” value is on record as -8 mm Hg.
The compound `CCOC(=O)C1=C(CCCCCCCN)NC(C)=C(C(=O)OC)C1c1ccccc1Cl` (racemic) [EXAMPLE 12, (4R,S)-2-(7-Aminoheptyl)-4-(2-chlorophenyl)-3-ethoxycarbonyl-5-methoxycarbonyl-6-methyl-1,4-dihydropyridine fumarate] yielded a 50% inhibitory concentration (IC50) in the test on rat aorta of 25 nM. In addition, in test [2] (2.0 mg/kg), the “Mean arterial pressure after treatment, Δ mm Hg, 4 h” value is listed as -22 mm Hg and the “Mean arterial pressure after treatment, Δ mm Hg, 7 h” value is -32 mm Hg. Besides, in test [1], the “Systolic arterial pressure after treatment, Δ mm Hg, 4 h” value is -23 mm Hg; the “Systolic arterial pressure after treatment, Δ mm Hg, 6 h” value is -30 mm Hg; the “Systolic arterial pressure after treatment, Δ mm Hg, 24 h” value is -21 mm Hg.
`COC(=O)C1=C(C)NC(COCCOCCN)=C(C(=O)OCc2ccc([N+](=O)[O-])cc2)C1c1c(F)c(F)c(F)c(F)c1F` (racemic) [EXAMPLE 23, (4R,S)-2-{[2-(2-Aminoethoxy)ethoxy]methyl}-3-(4-nitrobenzyloxycarbonyl)-5-methoxy-6-methyl-4-pentafluorophenyl-1,4-dihydropyridine tartrate] showed a half-maximal inhibitory concentration (IC50) in the test with rat aorta of 200 nM.
With `CCOC(=O)C1=C(COCCOCC[N+](C)(C)Cc2ccccc2)NC(C)=C(C(=O)OC)C1c1cccc(Cl)c1Cl` (racemic) [EXAMPLE 11, N-Benzyl-7-[(4R,S)-3-ethoxycarbonyl-4-(2,3-dichlorophenyl)-5-methoxycarbonyl-6-methyl-2-(1,4-dihydropyridyl)]-N,N-dimethyl-3,6-dioxaheptanammonium iodide], in the test with rat aorta, the concentration for half-maximal inhibition (IC50) amounted to 250 nM.
On to `COC(=O)C1=C(C)NC(C)=C(C(=O)OC)C1c1ccccc1[N+](=O)[O-]` [NIFEDIPINE, nifedipine, reference compound], for which, in test [1], the “Systolic arterial pressure after treatment, Δ mm Hg, 4 h” value is -19 mm Hg and the “Systolic arterial pressure after treatment, Δ mm Hg, 6 h” value is listed as -25 mm Hg.
In turn, `CCOC(=O)C1=C(COCCCOCCCN)NC(C)=C(C(=O)OC)C1c1cccc(Cl)c1Cl` (racemic) [EXAMPLE 27, (4R,S)-2-{[3-(3-Aminopropoxy)propoxy]methyl}-4-(2,3-dichlorophenyl)-3-ethoxycarbonyl-5-methoxycarbonyl-6-methyl-1,4-dihydropyridine fumarate] registered an IC50 in the test with rat aorta of 4.4 nM. In other words, the single-digit nanomolar range.
On the same count and under the same terms, with `C=C(C)COC(=O)C1=C(COCCOCCN)NC(C)=C(C(=O)OC)C1c1cccc(Cl)c1Cl` (racemic) [EXAMPLE 39, (4R,S)-2-{[2-(2-Aminoethoxy)ethoxy]methyl}-4-(2,3-dichlorophenyl)-3-[(2-methyl-2-propenyl)oxycarbonyl]-5-methoxycarbonyl-6-methyl-1,4-dihydropyridine fumarate] the figure was 80 nM.
In the case of `COC(=O)C1=C(C)NC(COCCOCCN)=C(C(=O)OCC(C)C)C1c1cccc(C(F)(F)F)c1Cl` (racemic) [EXAMPLE 38, (4R,S)-2-{[2-(2-Aminoethoxy)ethoxy]methyl}-4-(2-chloro-3-trifluoromethylphenyl)-3-isobutyloxycarbonyl-5-methoxycarbonyl-6-methyl-1,4-dihydropyridine fumarate], the IC50 in the test on rat aorta came to 61 nM.
In turn, `CCOC(=O)C1=C(COCCOCCN)NC(C)=C(C(=O)OC)C1c1ccccc1Cl` (racemic) [EXAMPLE 5, (4R,S)-2-{[2-(2-Aminoethoxy)ethoxy]methyl}-4-(2-chlorophenyl)-3-ethoxycarbonyl-5-methoxycarbonyl-6-methyl-1,4-dihydropyridine fumarate] registered an IC50 with rat aorta of 65 nM. Also, in test [2] (0.5 mg/kg), the “Mean arterial pressure after treatment, Δ mm Hg, 4 h” value is -32 mm Hg and the “Mean arterial pressure after treatment, Δ mm Hg, 7 h” value was -25 mm Hg. Further, in test [2] (1.0 mg/kg), the “Mean arterial pressure after treatment, Δ mm Hg, 4 h” value is listed as -48 mm Hg; the “Mean arterial pressure after treatment, Δ mm Hg, 7 h” value is reported as -39 mm Hg; the “Mean arterial pressure after treatment, Δ mm Hg, 24 h” value was -10 mm Hg. Besides, in test [1], the “Systolic arterial pressure after treatment, Δ mm Hg, 4 h” value was -49 mm Hg; the “Systolic arterial pressure after treatment, Δ mm Hg, 6 h” value was -49 mm Hg; the “Systolic arterial pressure after treatment, Δ mm Hg, 24 h” value is recorded as -22 mm Hg.
On to `COC(=O)C1=C(C)NC(COCCOCCN)=C(C(=O)OCCCC(C2CC2)C2CC2)C1c1cccc(Cl)c1Cl` (racemic) [EXAMPLE 33, (4R,S)-2-{[2-(2-Aminoethoxy)ethoxy]methyl}-4-(2,3-dichlorophenyl)-3-(4,4-dicyclopropylbutyloxycarbonyl)-5-methoxycarbonyl-6-methyl-1,4-dihydropyridinefumarate], for which, in the test on rat aorta, the IC50 was 77 nM.
As for `CCOC(=O)C1=C(COCCOCCN)NC(C)=C(C(=O)OC)C1c1cccc(Cl)c1` (racemic) [EXAMPLE 18, (4R,S)-2-{[2-(2-Aminoethoxy)ethoxy]methyl}-4-(3-chlorophenyl)-3-ethoxycarbonyl-5-methoxycarbonyl-6-methyl-1,4-dihydropyridine tartrate], it took 4.7 nM to reach half-maximal inhibition in the test on rat aorta (IC50).
